For data set [1], the system named is NCI-H929 human myeloma cells. In words: Inhibition of the proliferation of NCI-H929 cells (luminescent cell viability, CTG). In kind it is cell-based. As to conditions: Homo sapiens, NCI-H929, 144 h, 6 days, CellTiter-Glo. How it is done: The effect of the compounds of the present invention on the proliferation of NCI-H929 human myeloma cells was evaluated by using a luminescent cell viability test experiment.
The compound was dissolved and diluted to 5 mM in DMSO, and then serially diluted 4-fold in DMSO to a minimum concentration of 0.31 μM. Each concentration was further diluted 50-fold with RPMI 1640 medium (Thermo Fisher, Cat. No. 72400-047). If the IC50 value of the compound was relatively low, the initial concentration of the compound could be lowered.
NCI-H929 cells (Nanjing Cobioer, Cat. No. CBP60243) were cultured in RPMI 1640 complete medium [containing 10% FBS (GIBCO, Cat. No. 10099-141) and 100 units/mL penicillin-streptomycin (Thermo Fisher, Cat. No. 15140122)]. Cells (15000 cells/mL) were plated in 90 μL of the complete medium in a 96-well plate and cultured overnight, and then 10 μL of the compound solution was added into each well. The cells were cultured in an incubator at 37° C. and 5% CO2 for 6 days. Then the cell culture plate was taken out and balanced to room temperature according to the instruction of the CellTilter-Glo (CTG) kit (Promega, Cat. No. G7572). 50 μL CTG reagent was added for complete lysis, the plate was placed at room temperature for 10 minutes, and the luminescence signal was read with a microplate reader (EnVision, Perkin Elmer). The group containing 0.2% DMSO medium was used as 0% inhibition. The XLfit software was used to plot the compound inhibition curve and calculate the inhibitory IC50 value.
On the technique in general: Cellular ATP, detected with luciferase, serves as a proxy for viable cell number.

Data set [2] in a line: In vivo pharmacokinetic experiment in rats. As to conditions: male Sprague-Dawley rats, n = 3; for F: PO 5 mpk vs IV 1 mpk; for clearance / Vd / AUC(0-t) / Cmax: rat, plasma; for clearance / Vd: 1 mg/kg, IV 1 mpk; for Vd: read-out: VSS; for AUC(0-t) / Cmax: 5 mg/kg, PO 5 mpk. How it is done: The compound to be tested was dissolved in 5% DMA+20% Solutol+75% Saline vehicle to prepare a 0.5 mg/mL administration solution.
2 mL/kg of the administration solution was administered through the intravenous injection (IV) at a dose of 1 mg/kg to three fed male Sprague-Dawley rats, respectively. Blood samples were collected at 0.083, 0.25, 0.5, 1, 2, 4, 8 and 24 hours after administration. 10 mL/kg of the administration solution was administered by gavage (PO) at a dose of 5 mg/kg to other three fed male Sprague-Dawley rats, respectively. Blood samples were collected at 0.25, 0.5, 1, 2, 4, 8 and 24 hours after administration.
The concentration of the compound to be tested in plasma was obtained with the LC-MS/MS quantitative analysis with an API-4500 mass spectrometer, and the limit of quantitation (LOQ) for the plasma was 1 ng/mL.

The subject of a further data set is TNFα. In words: Inhibition of TNFα secretion in LPS-stimulated hPBMC (ELISA). The format is cell-based. As to conditions: Homo sapiens, overnight, read-out: IC50 (nM) for the inhibition of the TNFa secretion. How it is done:
(§1) The immunomodulatory function of the compound of the present invention was evaluated by detecting its effect on the secretion amount of TNFα and IL-2 in cells from the human peripheral blood mononuclear cells (hPBMC) by the enzyme linked immunosorbent assay (ELISA) method.
(§2) The peripheral blood of healthy volunteers was collected by using EDTA anticoagulant tubes, and diluted with phosphate buffered saline (PBS) containing 2% fetal bovine serum (Gibco, Cat. No. 10099-141) in an equal volume ratio. 30 mL of the resulting diluted sample was transferred into a Sepmate-50 centrifuge tube (Stemcell, Cat. No. 86450) to which 15 mL of a density-gradient centrifugation liquid (Sigma, Cat. No. 10771) had been added in advance, and centrifuged at room temperature at 1200×g for 10 minutes. The liquid containing PBMC in the upper layer was transferred to a new 50-mL centrifuge tube, and centrifuged at room temperature at 300×g for 8 minutes. The supernatant was discarded, and the resulting PBMC was resuspended to 5×10^6/mL by using RPMI 1640 medium (Gibco, Cat. No. 72400-047). 80 μL of the resulting suspension was added to each well in a 96-well plate.
(§3) Each concentration was further diluted 50-fold with RPMI 1640 medium. 10 μL of each compound solution was added into the cells in the above 96-well plate. The 96-well plate was placed in an incubator, and the cells were cultured at 37° C. and 5% CO2 for 1 hour. 10 μL of LPS (Sigma, Cat. No. L-2880) with a concentration of 100 ng/mL was added, and the cells were continuously cultured in the incubator at 37° C. and 5% CO2 overnight. Supernatants were collected for the detection of TNFα.
(§4) TNFα and IL-2 were detected respectively according to each instruction of the ELISA kits (R&D, Cat. No. DY210 and DY202, respectively) to obtain the OD450 values for each well. The group containing 0.2% DMSO medium was used as 0% inhibition or stimulation. The XLfit software was used to plot the compound inhibition or stimulation curve and calculate the corresponding IC50 or EC50.

A further data set deals with IL-2. The data set is described as follows: Stimulation of IL-2 secretion in anti-CD3-stimulated hPBMC (ELISA). In kind it is cell-based, human. As to conditions: Homo sapiens, anti-CD3 antibody, 72 hours. How it is done:
as §1, §2, §3
The above-mentioned 96-well plate can also be placed in an incubator, and the cells were cultured at 37° C. and 5% CO2 for 1 hour. 10 μL of anti-CD3 antibody (Thermo Fisher, Cat. No. 14-0037-82) with a concentration of 500 ng/mL was added, and the cells were continuously cultured in the incubator at 37° C. and 5% CO2 for 72 hours. Supernatants were collected for the detection of IL-2.
as §4
(In general: ELISA stands for enzyme-linked immunosorbent assay.)

Take `C[C@H](c1ccc(COc2cccc3c2CN([C@H]2CCC(=O)NC2=O)C3=O)cc1)N1CCN(c2ccc(C#N)cn2)CC1` [Compound 16, 6-(4-((R)-1-(4-(((2-((S)-2,6-dioxopiperidin-3-yl)-1-oxoisoindolin-4-yl)oxy)methyl)phenyl)-ethyl)piperazin-1-yl)nicotinonitrile]: in data set [1], half-maximal inhibition (IC50) required 0.1 nM. For the same molecule, in data set [2], the F was determined as 27%, the clearance amounted to 5.2 mL/min/kg, the Vd turned out to be 0.56 L/kg and the AUC(0-t) came out at 4280 ng·h/mL. In data set [2], this molecule displayed a Cmax of 555 ng/mL. Also, the half-inhibitory concentration (IC50) in the data set with TNFα is 1.3 nM. In the data set with IL-2, the EC50 was 5.5 nM.
With `C[C@H](c1ccc(COc2cccc3c2CN([C@H]2CCC(=O)NC2=O)C3=O)cc1)N1CCN(c2ccc(C#N)nc2)CC1` [Compound 21, 5-(4-((R)-1-(4-(((2-((S)-2,6-dioxopiperidin-3-yl)-1-oxoisoindolin-4-yl)oxy)methyl)phenyl)ethyl)piperazin-1-yl)-2-cyanopyridine], in data set [1], the IC50 was 0.04 nM. For the same molecule, in data set [2], the F is 18%, the clearance was 14 mL/min/kg, the Vd is 0.65 L/kg and the AUC(0-t) came out at 1010 ng·h/mL. Also, in data set [2], the Cmax is 318 ng/mL. Also, the half-maximal inhibitory concentration (IC50) in the data set on TNFα was determined as 0.5 nM. The molecule further yielded an EC50 in the data set on IL-2 of 3.8 nM.
In the case of `C[C@H](c1ccc(COc2cccc3c2CN([C@H]2CCC(=O)NC2=O)C3=O)cc1)N1CCN(c2ncc(C#N)cc2F)CC1` [Compound 22, 6-(4-((R)-1-(4-(((2-((S)-2,6-dioxopiperidin-3-yl)-1-oxoisoindolin-4-yl)oxy)methyl)phenyl)-ethyl)piperazin-1-yl)-5-fluoronicotinonitrile], the IC50 in data set [1] came to 0.6 nM. In data set [2], the F is listed as 30%, the clearance came out at 2.2 mL/min/kg, the Vd amounted to 0.36 L/kg and the AUC(0-t) turned out to be 13000 ng·h/mL. The molecule further showed a maximum concentration (Cmax) in data set [2] of 1440 ng/mL. For the same molecule, in the data set on TNFα, the IC50 turned out to be 4.7 nM. Also, in the data set on IL-2, the EC50 came to 26 nM.
Regarding `C[C@H](c1ccc(COc2cccc3c2CN([C@H]2CCC(=O)NC2=O)C3=O)cc1)N1CCN(c2ccc(C#N)cc2F)CC1` [Compound 6, 4-(4-((R)-1-(4-(((2-((S)-2,6-dioxopiperidin-3-yl)-1-oxoisoindolin-4-yl)oxy)methyl)phenyl)ethyl)piperazin-1-yl)-3-fluorobenzonitrile], the IC50 in data set [1] turned out to be 0.1 nM. In data set [2], the F was determined as 14%, the clearance amounted to 1 mL/min/kg, the Vd worked out at 0.27 L/kg and the AUC(0-t) turned out to be 11800 ng·h/mL. This molecule also yielded a Cmax in data set [2] of 1800 ng/mL. Moreover, in the data set on TNFα, the IC50 was found to be 2.8 nM. In the data set with IL-2, this molecule displayed an EC50 of 2.3 nM.

In general, IC50 refers to the concentration that inhibits the measured activity by half. By clearance is commonly meant the rate of elimination divided by the concentration. A low value points to a low capacity for elimination. In general, AUC(0-t) refers to the area under the concentration-time curve up to a stated or last time point. As usually defined, the Cmax is the highest concentration seen after dosing. One may read the EC50 as the concentration at which the effect is half-maximal. A higher EC50 goes with a less potent agent.
